This passage reports inhibition results from US4996230A, “Leukotriene antagonists” (Eli Lilly and Company, priority 1990, dated 1991).

Broadly, the inhibition is the relative decrease from the control value, in per cent.

For the assay, the target named is T1, leukotriene B4 specific receptor on the membrane of human neutrophils (Homo sapiens, UniProt Q15722).
T1 construct: a specific receptor on the membrane of human neutrophils; endogenous in cells; host or cells: human peripheral blood neutrophils (buffy coats of two blood donors; intact cells, at least 90% neutrophils)
T1 sequence (Q15722 whole entry): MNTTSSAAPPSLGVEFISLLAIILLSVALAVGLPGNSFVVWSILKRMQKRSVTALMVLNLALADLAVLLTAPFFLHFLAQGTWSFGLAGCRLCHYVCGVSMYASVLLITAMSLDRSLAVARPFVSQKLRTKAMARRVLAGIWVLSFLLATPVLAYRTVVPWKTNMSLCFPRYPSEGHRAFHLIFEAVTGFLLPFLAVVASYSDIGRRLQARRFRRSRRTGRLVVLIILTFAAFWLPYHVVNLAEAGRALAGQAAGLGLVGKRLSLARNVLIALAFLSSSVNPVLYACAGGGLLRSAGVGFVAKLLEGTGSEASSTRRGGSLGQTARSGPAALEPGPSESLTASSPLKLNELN
Put plainly: Inhibition of Binding of ^3H-LTB4 to Peripheral Human Neutrophils (radio-ligand binding assay). The settings on record: 0.1-0.2 nM ^3H-LTB4, 10 minutes at 4° C., read-out: LTB4 Binding Inhibition (percent inhibition); for inhibition at 1 µM: Drug Concentration 10^-6 M; for inhibition at 0.1 µM: Drug Concentration 10^-7 M; for inhibition at 10 µM: Drug Concentration 10^-5 M. The protocol:
Inhibition of Binding of ^3 H-LTB4 to Peripheral Human Neutrophils
The effectiveness of compounds to inhibit the binding of leukotriene B4 to a specific receptor on the membrane of human neutrophils was measured by using an adaptation of a radio-ligand binding assay developed by Goldman and Goetzl, J. Immunol., 129, 1600 (1982). Other investigators have developed similar assays (see, e.g., Kreisle, et al., J. Exp. Med., 157, 628 (1983) and Lin, et al., Prostaglandins, 28, 837 (1984)).
Cells used in the assay were isolated by standard techniques of centrifugation on Ficoll-Hypaque, dextran 70 sedimentation and hypotonic lysis. The following procedure was used. Freshly-prepared buffy coat layers from two individuals were obtained from a local blood donor center. The cells were mixed and diluted to 484 ml with phosphate buffered saline containing heparin (10 units/ml) and heat-inactivated calf serum (5%). This was divided into 20 ml aliquots and the aliquots layered on top of Ficoll-Paque (12 ml). The material was then centrifuged at 500 g for 40 minutes at room temperature. The resulting upper layer of platelets and mononuclear cells was discarded. The lower layer containing erythrocytes and neutrophils was retained. Buffer was added (1 ml per 4 ml of lower layer) and the suspension mixed. For each milliliter of this mixture, 0.33 ml of 6% Macrodex was added. After stirring, the cells were allowed to sediment for 1 hour at 37° C. The resulting erythrocyte pellet was discarded and the neutrophil enriched supernatant fluid centrifuged at 500 g for 10 minutes at 4° C. Erythrocytes still present in this cell pellet were lysed by incubating the cells with 5-8 ml ice-cold distilled water for 30-45 seconds. Subsequently, the volume was made up to 50 ml by addition of ice-cold buffer and the cells resuspended. The suspension was then centrifuged at 300 g for 10 minutes at 4° C. The cells were finally resuspended at a cell density of 2×10^7 cells/ml in the assay buffer. This buffer consisted of Hanks' balanced salt solution and 0.1% ovalbumin (pH 7.3).
The amount of bound ^3 H-LTB4 was then measured and compared with the amount bound in the absence of test compound. The assay was carried out in microcentrifuge tubes by adding first 10 μl test compound dissolved in DMSO, followed by adding 20 μl ^3 H-LTB4 diluted in assay buffer, and finally adding 500 μl of the cell suspension. At the end of the 10 minutes incubation, 300 μl of a mixture of dibutyl and dinonyl phthalate (7:2) were added and the tubes centrifuged for 2 minutes in a microcentrifuge. The radioactivity bound to the cell pellet was measured by scintillation spectroscopy. Appropriate corrections for nonspecific bonding of ^3 H-LTB4 were made.

In the case of `CCCCCCCCCCOc1cc2oc3c(C(=O)O)cccc3c(=O)c2cc1CCC(=O)O` [Example 1, 5-Carboxy-3-(decyloxy)-9-oxo-9H-xanthene-2-propanoic acid], the inhibition at 1 µM came out at 25% and the inhibition at 0.1 µM worked out at 2%.

As for `CCCCCCCCCCOc1ccc2c(=O)c3cccc(C(=O)O)c3oc2c1CCC(=O)O` [Example 2, 5-Carboxy-3-(decyloxy)-9-oxo-9H-xanthene-4-propanoic acid], the inhibition at 1 µM was found to be 27% and the inhibition at 0.1 µM is -7%.

Take `CCCCCCCCCCOc1cc2oc3ccc(C(=O)O)cc3c(=O)c2cc1CCC(=O)O` [Example 3, 7-Carboxy-3-decyloxy-9-oxo-9H-xanthene-2-propanoic acid]: the inhibition at 1 µM amounted to 23% and the inhibition at 0.1 µM is -4%.

On to `CCCCCCCCCCOc1ccc2c(=O)c3cc(C(=O)O)ccc3oc2c1CCC(=O)O` [Example 4, 7-Carboxy-3-(decyloxy)-9-oxo-9H-xanthene-4-propanoic acid], for which the inhibition at 10 µM is 102%, the inhibition at 1 µM came out at 86% and the inhibition at 0.1 µM is 52%.

With `COc1ccc(C=CCCCCOc2ccc3c(=O)c4cc(C(=O)O)ccc4oc3c2CCC(=O)O)cc1` [Example 6, 7-Carboxy-3-{[6-(4-methoxyphenyl)-5-hexenyl]oxy}-9-oxo-9H-xanthene-4-propanoic acid], the inhibition at 10 µM is 102%, the inhibition at 1 µM was 99% and the inhibition at 0.1 µM worked out at 91%.

Take `COc1ccc(CCCCCCOc2ccc3c(=O)c4cc(C(=O)O)ccc4oc3c2CCC(=O)O)cc1` [Example 7, 7-Carboxy-3-{[6-(4-methoxyphenyl)hexyl]oxy}-9-oxo-9H-xanthene-4-propanoic acid]: the inhibition at 10 µM came to 106%, the inhibition at 1 µM stood at 103% and the inhibition at 0.1 µM amounted to 85%.

On to `CCCCCCCCCCOc1cc2c(cc1CCC(=O)O)C(=O)c1cc(C(=O)O)ccc1-2` [Example 8, 7-Carboxy-3-decyloxy-9-oxo-9H-fluorene-2-propanoic acid], for which the inhibition at 10 µM is 68%, the inhibition at 1 µM stood at 19% and the inhibition at 0.1 µM was -4%.
